Reference: patent US20170354147A1, “SAFENING AMINOPYRALID COMPOSITIONS IN BRASSICA SPECIES WITH CLOPYRALID AND METHODS OF USE THEREOF” (Dow AgroSciences LLC, priority 2016, published 2017)
Several values for one entry are separate records, joined by “and”; a condition that tells them apart may be missing. Equal entries are not always repeated.

How the values were obtained:
Format in all cases: in vivo
[1] = tested on: Spring Argentine canola (Brassica napus, BRSNS), Nex 1012 glyphosate-tolerant, BRSNS-RR; assay: Field trials Canada, postemergence crop safety (visual injury) to glyphosate-tolerant Spring Argentine canola
Source text: (§1) BRSOM=Brassica oleracea var. acephala subvar. Medullosa (stem kale) BRSSS=Brassica sp. (Aparima Gold swede) BRSNS-RR=Brassica napus (spring rape or Spring Argentine rape, Roundup® Ready) g ae/ha=grams acid equivalent per hectare Mean % visual injury=observed value of percent (%) injury rated visually Observed Mean % visual injury=observed value of percent (%) injury rated visually Colby predicted mean % visual injury=expected value of percent (%) injury as calculated by Colby's equation Mean % visual leafroll=observed value of percent (%) leafroll rated visually Observed Mean % visual leafroll=observed value of percent (%) leafroll rated visually Colby predicted mean % visual leafroll=expected value of percent (%) leafroll as calculated by Colby's equation Mean % visual growth inhibition=observed value of percent (%) growth inhibition rated visually Observed Mean % visual growth inhibition=observed value of percent (%) growth inhibition rated visually Colby predicted mean % visual growth inhibition=expected value of percent (%) growth inhibition as calculated by Colby's equation
Field trials were established in Canada (in Manitoba, Alberta, and Saskatchewan) to evaluate crop safety of herbicide treatments to Spring Argentine canola (Brassica napus, BRSNS). Trials were designed as randomized complete blocks with four replicates. Trials were established as weed-free crop tolerance trials with plot sizes of 2-3 meters (m) by 8-25 m (width×length). The crops were grown using normal cultural practices for fertilization, seeding, and maintenance to ensure good growth of the crop.
The overall injury assessments were based on visual ratings of growth inhibition, leaf deformity, epinasty, chlorosis and delay in maturity. Assessments were made at 8-10 days after treatment (DAT) for an initial rating, 14-17 DAT for an early-season rating, 28-32 DAT for a mid-season rating, and 42-55 DAT for a late-season rating.
Aminopyralid-triisopropanolammonium (TIPA) was applied as Milestone® (240 g ae/L SL); clopyralid-olamine was applied as Lontrel™ 360 (360 g ae/L SL); and glyphosate-dimethylammonium was applied as Vantage™ XRT (480 g ae/L SL).

[2] = tested on: Aparima Gold swede (Brassica sp., BRSSS); assay: Field trials Canterbury, New Zealand, postemergence crop safety (visual injury, growth inhibition) to Aparima Gold swede
Source text: (§2) The following equation was used to calculate the expected activity of mixtures containing two active ingredients, A and B:
(§3) Expected=A+B−(A×B/100) • A=observed efficacy of active ingredient A at the same concentration as used in the mixture; • B=observed efficacy of active ingredient B at the same concentration as used in the mixture.
as §1
Two field trials were established in Canterbury, New Zealand to evaluate crop safety of herbicide treatments to leafy forage brassica crops (Aparima Gold swede (Brassica sp., BRSSS)). Trials were designed as randomized complete blocks with four replicates. All trials were established as weed-free tolerance trials with plot size of 3 meters (m) by 8 m (width×length). The crops were grown using normal cultural practices for fertilization, seeding, and maintenance to ensure good growth of the crop.
All herbicide treatments were applied post-emergence with applications made to the crops at the 3 to 5-leaf stage. Herbicides were applied with backpack sprayers using carbon dioxide (CO2) as a propellant. […] All treatments were applied with Uptake adjuvant (paraffinic oil/Non-Ionic Surfactant blend) at 1% v/v. Phytotoxicity to the crops was assessed visually at several intervals after application as percent overall injury, compared to an untreated control plot. The overall injury assessments were based on visual ratings of growth inhibition, leaf deformity, epinasty, and chlorosis.
Aminopyralid-TIPA was applied as Tordon™ Max Herbicide (30 g ae/L SL), and clopyralid-TIPA was applied as Versatill™ (300 g ae/L SL),

[3] = tested on: Aparima Gold swede (Brassica sp., BRSSS); assay: Pot trials, postemergence crop safety (visual injury) to Aparima Gold swede
Source text: as §2, §3, §1
(§4) Two pot trials were established at Dow AgroSciences Waireka Field Research Station, New Zealand to evaluate crop safety of herbicide treatments to two species of leafy and bulb forage brassica crops (stem kale (Brassica oleracea var. acephala subvar. medullosa, BRSOM) and Aparima Gold swede (Brassica sp., BRSSS)). Trials were designed as randomized complete blocks with five replicates. Trials were established as weed-free tolerance trials. Pot size was 10 by 10 centimeters (cm, width×length). The forage brassica crops were grown using normal cultural practices for fertilization, seeding, watering and maintenance to ensure good growth of the crops.
(§5) All herbicide treatments were applied post-emergence with applications made to the crops at the 2 to 5-leaf stage. Herbicides were applied with a belt spray chamber system with compressed air as a propellant. The sprayer utilized a flat fan spray nozzle calibrated to deliver a uniform spray pattern that provided thorough coverage of the foliage using a 200 liters per hectare (L/ha) spray volume. All treatments were applied with Uptake adjuvant (paraffinic oil/Non-Ionic Surfactant blend) at 0.5% volume per volume (v/v). Phytotoxicity to the crops was assessed visually at several intervals after application as percent overall injury, compared to an untreated control plot. The overall injury assessments were based on visual ratings of growth inhibition, leaf deformity, epinasty, and chlorosis.
(§6) Aminopyralid-triisopropanolammonium (TIPA) was applied as Tordon™ Max Herbicide (30 grams acid equivalent per liter (g ae/L) soluble (liquid) concentrate (SL)), and clopyralid-TIPA was applied as Versatill™ (300 g ae/L SL), The compositions tested, application rates employed, plant species tested, and results are given in Table 1 through Table 3.

[4] = tested on: stem kale (Brassica oleracea var. acephala subvar. medullosa, BRSOM); assay: Pot trials, postemergence crop safety (visual injury, leafroll) to stem kale
Source text: as §2, §3, §1, §4, §5, §6

[5] = 10 g ae/ha, with Glyphosate-DMA 450 g ae/ha
[6] = 20 g ae/ha, with Glyphosate-DMA 450 g ae/ha
[7] = Glyphosate-DMA 450 g ae/ha alone (Aminopyralid-TIPA 0 g ae/ha)

Nc1cc(Cl)nc(C(=O)O)c1Cl [Aminopyralid TIPA, tris (2-hydroxypropyl)ammonium 4-amino-3,6-dichloropyridine-2-carboxylate]
Mean % Visual Injury Early (14-17) DAT [1, 5]: 1.9% | Mean % Visual Injury Initial (8-10 DAT) [1, 5]: 2.8% | Mean % Visual Injury Late (42-55 DAT) [1, 5]: 1.5% | Mean % Visual Injury Mid (28-32 DAT) [1, 5]: 2.3% | Mean % Visual Injury Early (14-17) DAT [1, 6]: 5% | Mean % Visual Injury Initial (8-10 DAT) [1, 6]: 5% | Mean % Visual Injury Late (42-55 DAT) [1, 6]: 0.6% | Mean % Visual Injury Mid (28-32 DAT) [1, 6]: 5.6% | Mean % Visual Growth Inhibition ([2]; 13DAA1, 60 g ae/ha): 28.8% and 28.9% | Mean % Visual Injury ([2]; 13DAA1, 60 g ae/ha): 22.5% | Mean % Visual Injury ([2]; 22DAA1, 60 g ae/ha): 28.8% | Mean % Visual Growth Inhibition ([2]; 28DAA1, 60 g ae/ha): 45.0% | Mean % Visual Injury ([2]; 28DAA1, 60 g ae/ha): 38.8% | Mean % Visual Growth Inhibition ([2]; 56DAA1, 60 g ae/ha): 8.8% | Mean % Visual Injury ([3]; 3DAA1, 60 g ae/ha): 6.8% | Mean % Visual Injury ([3]; 7DAA1, 60 g ae/ha): 9.6% | Mean % Visual Injury ([3]; 15DAA1, 60 g ae/ha): 15.4% | Mean % Visual Injury ([3]; 28DAA1, 60 g ae/ha): 15.6%

CNC.O=C(O)CNCP(=O)(O)O [Glyphosate-DMA]
Mean % Visual Injury Early (14-17) DAT [1, 7]: 0.4% | Mean % Visual Injury Initial (8-10 DAT) [1, 7]: 1% | Mean % Visual Injury Late (42-55 DAT) [1, 7]: 0.2% | Mean % Visual Injury Mid (28-32 DAT) [1, 7]: 1.5%

O=C(O)c1nc(Cl)ccc1Cl [Clopyralid TIPA, (2RS,2′RS,2″RS)-tris(2-hydroxypropyl)ammonium 3,6-dichloropyridine-2-carboxylate]
Mean % Growth Inhibition ([2]; 13DAA1, 45 g ae/ha): 2.8% | Mean % Visual Injury ([2]; 13DAA1, 45 g ae/ha): 0.8% | Mean % Growth Inhibition ([2]; 13DAA1, 90 g ae/ha): 8.8% | Mean % Growth Inhibition ([2]; 13DAA1, 180 g ae/ha): 7.5% | Mean % Visual Injury ([2]; 13DAA1, 180 g ae/ha): 2.3% | Mean % Visual Injury ([2]; 22DAA1, 45 g ae/ha): 0.0% | Mean % Growth Inhibition ([2]; 28DAA1, 180 g ae/ha): 3.8% | Mean % Visual Injury ([2]; 28DAA1, 180 g ae/ha): 3.0% | Mean % Growth Inhibition ([2]; 56DAA1, 45 g ae/ha): 6.0% | Mean % Visual Injury ([3]; 3DAA1, 90 g ae/ha): 2.2% | Mean % Visual Injury ([3]; 7DAA1, 90 g ae/ha): 0.4% | Mean % Visual Injury ([3]; 15DAA1, 90 g ae/ha): 0.0% | Mean % Visual Injury ([3]; 28DAA1, 90 g ae/ha): 0.0% | Mean % Visual Leafroll ([4]; 1DAA1, 90 g ae/ha): 0.0% | Mean % Visual Leafroll ([4]; 1DAA1, 180 g ae/ha): 0.0% | Mean % Visual Leafroll ([4]; 1DAA1, 360 g ae/ha): 0.0% | Mean % Visual Leafroll ([4]; 4DAA1, 90 g ae/ha): 0.0% | Mean % Visual Leafroll ([4]; 4DAA1, 180 g ae/ha): 0.0% | Mean % Visual Injury ([4]; 7DAA1, 45.0 g ae/ha): 0.0% and 0.7% | Mean % Visual Injury ([4]; 7DAA1, 90.0 g ae/ha): 0.0% and 0.7% | Mean % Visual Injury ([4]; 7DAA1, 180.0 g ae/ha): 0.0% and 0.7% | Mean % Visual Injury ([4]; 7DAA1, 360.0 g ae/ha): 0.0% and 0.7% | Mean % Visual Injury ([4]; 15DAA1, 22.5 g ae/ha): 0.0% | Mean % Visual Injury ([4]; 15DAA1, 45 g ae/ha): 0% | Mean % Visual Injury ([4]; 15DAA1, 90 g ae/ha): 0% | Mean % Visual Leafroll ([4]; 15DAA1, 90 g ae/ha): 0.0% | Mean % Visual Leafroll ([4]; 15DAA1, 180 g ae/ha): 0.0% | Mean % Visual Injury ([4]; 15DAA1, 180.0 g ae/ha): 0.0% | Mean % Visual Leafroll ([4]; 15DAA1, 360 g ae/ha): 0.0% | Mean % Visual Injury ([4]; 15DAA1, 360.0 g ae/ha): 0.0% | Mean % Visual Injury ([4]; 28DAA1, 90.0 g ae/ha): 0.0% | Mean % Visual Injury ([4]; 28DAA1, 360 g ae/ha): 0% | Mean % Visual Leafroll ([4]; 28DAA1, 360 g ae/ha): 0.0%
